Data on twelve molecules can be found in patent US8207167B2, “Aryl-phenyl-sulfonamide-phenylene compounds and their use” (PIMCO 2664 Limited, priority 2008, dated 2012).

A short description of series [1]: Human liver microsomal stability assay. As to conditions: pooled human liver microsomes 0.5 mg/mL, test compound 3 μM, 45 minute incubation, NADPH; for half-life at 3 μM: both sexes, pH 7.4. The series is classed as in vitro ADME. Here is the method:
(§1) Initial screening of candidate compounds was performed using in vitro assays to determine potency, metabolic stability and solubility in biologically relevant fluids. Potency was assessed using a viability assay based on the survival of the J774 macrophage cell line. Macrophages are closely related to osteoclasts and have been used previously as a model system for osteoclast survival (see, e.g., Luckman et al., 1998). Like osteoclasts, J774 macrophages are dependent on continued NFκB activation for survival, thereby providing a valuable screen for compounds with anti-inflammatory activity. Metabolic stability was measured by determining the rate of disappearance of compound in the presence of human liver microsomal preparations, as quantified by LC-MS/MS. Solubility was measured by equilibration of the compound in fasted state simulated intestinal fluid (FaSSIF) and quantified by HPLC.
Metabolic stability of APSAP derivatives was measured by determination of the rate of compound disappearance when incubated in the presence of human liver microsomes. Liver microsomes are prepared from the endoplasmic reticulum of hepatocytes and are the primary source of the most important enzymes (cytochrome P450) involved in drug metabolism. Study of drug stability in the presence of liver microsomes is accepted as a valuable model permitting rapid prediction of in vivo drug stability.
Human liver microsomes were obtained from a commercial source. Test compounds (3 μM) were incubated with pooled liver microsomes (male and female). Samples were incubated for a 45 minute period and removed at 5 time points and test compounds were analysed by LC-MS/MS.
The final incubation volume was 25 μL. A control incubation was included for each compound tested, where 0.1 M phosphate buffer pH 7.4 was added instead of NADPH. The control compounds testosterone and 7-hydroxycoumarin were included in each experiment and all incubations were performed singularly for each compound.
Each compound was incubated for 0, 5, 15, 30, and 45 minutes. The control (minus NADPH) was incubated for 45 minutes only. The reactions were stopped by the addition of 50 μL methanol containing internal standard at the appropriate time points. The incubation plates were centrifuged at 2500 rpm for 20 minutes at 4° C. to precipitate the protein.
Following protein precipitation, the sample supernatants were combined in cassettes of up to 4 compounds and analysed using standard LC-MS/MS conditions.
From a plot of the natural logarithm of the peak area ratio (i.e., the ratio of compound peak area:internal standard peak area) against time, the gradient of the line was determined. Subsequently, half-life and intrinsic clearance were calculated using the equations below: Eliminated rate constant(k)=(−gradient). […] Intrinsic Clearance(CLint)([…])=(V×0.693)/t1/2. wherein V=Incubation volume(μL/mg microsomal protein). Pharmacokinetics Studies
In general terms: Liver microsomes are a subcellular fraction often used to study metabolism.

The test system of series [2] is J774 macrophages. Description: Alamar Blue macrophage J774 viability assay. The series is classed as cell-based. The conditions noted are these: Mus musculus, 72 hours culture with compound, Alamar Blue read-out. As for the experimental part: as §1
In vitro potency as anti-inflammatory agents was determined for a number of APSAP compounds by incubation with J774 macrophages and subsequent determination of cell viability.
J774 cells were plated at 10^4 cells per well in 100 μL αMEM (α Modified Eagle Medium) in 96-well plates and grown overnight. The next day, test compounds were added to the cultures, and cultures were continued for another 72 hours. At the end of the culture period, cell survival was determined using an Alamar Blue assay as previously described (see, e.g., Nociari et al., 1998).
Alamar Blue is an oxidation-reduction sensitive indicator. The dye itself is in the oxidised state, which is blue and non-fluorescent. The dye can accept electrons from reducing species, such as NADPH and FADH, to form a reduced dye species, which is red and fluorescent. Thus the transformation from oxidised form to reduced form can be measured by fluorimetric or colourimetric means. For fluorescence measurements, 530-560 nm excitation and 590 nm emission wavelengths are typically used. For colourimetric measurements, absorbance at 570 nm (reduced form) and 600 nm (oxidised form) is typically measured. A simple calculation is performed to determine the relative quantities of the two species.
A high ratio of the reducing species, NADPH and FADH, to the corresponding oxidised species, NADP and FAD, is an indicator that cells are proliferating and viable. A low ratio indicates cells that are quiescent or non-viable.
Briefly, Alamar Blue (Biosource International) was added undiluted to each well (1:10 v/v, 10 μL). The plate was incubated at 37° C. for 3-4 hours and the fluorescence was measured at 590 nm, with a 25 nm bandwidth. A high reading indicated cells with normal viability, and a low reading indicated cells that have been damaged and are no longer proliferating normally. The controls gave a high fluorescence reading, indicating a high number of live, healthy cells. A potent test compound gave a low fluorescence reading.
The average results for each test compound (n=5) were expressed as a percent (%) of the average control value.
Addition of Compounds. All of the compounds studied were made up as 100 mM solutions in DMSO. These stock solutions were then diluted 1000-10000× in culture medium (αMEM). From these 100 μM or 10 μM solutions, convenient quantities (3-33 μL) were added directly to the wells so as to give the desired final compound concentration.
In general terms: The colour change of resazurin is a common sign of viable cells or microbes.

A short description of series [3]: Thermodynamic aqueous solubility in fasted state simulated intestinal fluid (FaSSIF). It counts as physicochemical. As to conditions: fasted state simulated intestinal fluid (FaSSIF), pH 6.5, thermodynamic from solid, 25° C., 24 hours equilibration, HPLC. Here is the method: as §1
Thermodynamic aqueous solubility was measured by equilibration of a number of APSAP compounds, in the solid state, with fasted state simulated intestinal fluid (FaSSIF) and quantified by HPLC. Measurement of solubility in FaSSIF provides a valuable model for the prediction of drug dissolution following oral administration.
Preparation of blank FaSSIF: NaOH pellets (174 mg), NaH2PO4.2H2O (2.235 g), and NaCl (3.093 g) were dissolved in 500 mL of water. The pH was adjusted to 6.5 using 1 M NaOH solution.
Preparation of FaSSIF: Sodium taurocholate (165 mg) was dissolved in 25 mL blank FaSSIF. 0.6 mL of a solution containing 100 mg/mL lecithin in methylene chloride was added. The methylene chloride was eliminated under vacuum at about 40° C. The vacuum was drawn for 15 minutes at 250 mbar, followed by 15 minutes at 100 mbar. […] After cooling to room temperature, the solution was then adjusted to 100 mL with blank FaSSIF.
The suspension was equilibrated at 25° C. for 24 hours, and then the pH was measured. The suspension was then filtered through a glass fibre C filter into a 96-well plate. The filtrate was then diluted by a factor of 100. Quantification was made by HPLC with reference to a standard solution of compound at approximately 0.1 mg/mL in DMSO. Different volumes of the standard, diluted and undiluted sample solutions were injected. The solubility was calculated using the peak areas determined by integration of the peak found at the same retention time as the principal peak in the standard injection. Analysis was performed on an Agilent HP1100 series system equipped with a diode array detector and using ChemStation software vB.02.01-SR1.

Converted amounts (≈) assume the structure as drawn.

What is called half-life is the time in which the quantity being followed falls by half. Lower therefore signals fast loss. The IC50 is the concentration that gives 50% inhibition. For orientation: solubility means the concentration that dissolves in the medium under given conditions. A lower solubility goes with a poorly soluble substance. `CC(C)(O)c1cccc(NS(=O)(=O)c2ccc(-c3ccc(Cl)cc3Cl)cc2)c1` [ABD707, 2′,4′-Dichloro-N-(3-(2-hydroxypropan-2-yl)phenyl)biphenyl-4-sulfonamide] displayed a half-life at 3 μM in series [1] of 12 min. Moreover, the half-maximal inhibitory concentration (IC50) in series [2] worked out at 90 nM. The molecule further showed a solubility at 24 h in series [3] of 140 µg/mL (≈ 321 µM).
Regarding `CC(O)c1cccc(NS(=O)(=O)c2ccc(-c3ccc(Cl)cc3Cl)cc2)c1` (stereo not drawn) [ABD708, 2′,4′-Dichloro-N-(3-(1-hydroxyethyl)phenyl)biphenyl-4-sulfonamide], the half-life at 3 μM in series [1] was found to be 6 min. In addition, in series [2], the half-inhibitory concentration (IC50) came to 180 nM. Also, in series [3], the concentration in solution (solubility at 24 h) was 100 µg/mL (≈ 237 µM).
The corresponding values for `O=S(=O)(Nc1cccc(C2(O)CC2)c1)c1ccc(-c2ccc(Cl)cc2Cl)cc1` [ABD709, 2′,4′-Dichloro-N-(3-(1-hydroxycyclopropyl)phenyl)biphenyl-4-sulfonamide] are 18 min, 380 nM and 70 µg/mL (≈ 161 µM).
Regarding `CN(C)Cc1cccc(NS(=O)(=O)c2ccc(-c3ccc(Cl)cc3Cl)cc2)c1` [ABD724, 2′,4′-Dichloro-N-(3-((dimethylamino)methyl)phenyl)biphenyl-4-sulfonamide], the half-life at 3 μM in series [1] turned out to be 21 min. Moreover, the IC50 in series [2] was 300 nM. This molecule returned a solubility at 24 h in series [3] of 90 µg/mL (≈ 207 µM).
In the same order, the values of `NS(=O)(=O)c1cccc(NS(=O)(=O)c2ccc(-c3ccc(Cl)cc3Cl)cc2)c1` [ABD751, 2′,4′-Dichloro-N-(3-sulfamoylphenyl)biphenyl-4-sulfonamide] are 46 min, 870 nM and 40 µg/mL (≈ 87.5 µM).
`O=S(=O)(Nc1cccc(C(O)C(F)(F)F)c1)c1ccc(-c2ccc(Cl)cc2Cl)cc1` (stereo not drawn) [ABD766, 2′,4′-Dichloro-N-(3-(2,2,2-trifluoro-1-hydroxyethyl)phenyl)biphenyl-4-sulfonamide] showed a half-life at 3 μM in series [1] of 16 min. Besides, the concentration for half-maximal inhibition (IC50) in series [2] is 710 nM. For the same molecule, in series [3], the solubility at 24 h is 20 µg/mL (≈ 42 µM).
For `CNCC(O)c1cccc(NS(=O)(=O)c2ccc(-c3ccc(F)cc3F)cc2)c1` (stereo not drawn) [ABD783, 2′,4′-Difluoro-N-(3-(1-hydroxy-2-(methylamino)ethyl)phenyl)biphenyl-4-sulfonamide], the T1/2 entry in series [1] is reported as “Stable”. In addition, in series [2], the half-maximal inhibitory concentration (IC50) came out at 1180 nM. Moreover, the concentration in solution in series [3] (solubility at 24 h) came to 370 µg/mL (≈ 884 µM).
Molecule `O=S(=O)(Nc1cccc(C(O)CN2CCOCC2)c1)c1ccc(-c2ccc(F)cc2F)cc1` (stereo not drawn) [ABD785, 2′,4′-Difluoro-N-(3-(1-hydroxy-2-morpholinoethyl)phenyl)biphenyl-4-sulfonamide] yielded a half-life at 3 μM in series [1] of 6 min. The IC50 in series [2] worked out at 4710 nM. The concentration in solution in series [3] (solubility at 24 h) was 210 µg/mL (≈ 443 µM).
The corresponding values for `NCc1cccc(NS(=O)(=O)c2ccc(-c3ccc(F)cc3F)cc2)c1` [ABD788, N-(3-(Aminomethyl)phenyl)-2′,4′-difluorobiphenyl-4-sulfonamide] are 60 min, 1000 nM and 50 µg/mL (≈ 134 µM).
The corresponding values for `CN(C)C(CO)c1cccc(NS(=O)(=O)c2ccc(-c3ccc(F)cc3F)cc2)c1` (stereo not drawn) [ABD791, N-(3-(1-(Dimethylamino)-2-hydroxyethyl)phenyl)-2′,4′-difluorobiphenyl-4-sulfonamide] are 27 min, 570 nM and 3000 µg/mL (≈ 6940 µM).
The corresponding values for `O=S(=O)(Nc1cccc(C(CO)N2CCOCC2)c1)c1ccc(-c2ccc(F)cc2F)cc1` (stereo not drawn) [ABD792, 2′,4′-Difluoro-N-(3-(2-hydroxy-1-morpholinoethyl)phenyl)biphenyl-4-sulfonamide] are 2 min, above 30000 nM and 4400 µg/mL (≈ 9270 µM).
For `N[C@H](CO)c1cccc(NS(=O)(=O)c2ccc(-c3ccc(F)cc3F)cc2)c1` [ABD855, (S)—N-(3-(1-Amino-2-hydroxyethyl)phenyl)-2′,4′-difluorobiphenyl-4-sulfonamide], in series [1], the half-life at 3 μM is 289 min. Also, the IC50 in series [2] turned out to be 860 nM. Further, the solubility at 24 h in series [3] was 4100 µg/mL (≈ 10100 µM).
